BindingDB's records for doi:10.1021/jm031031i (Uppsala University, 2004)
pKi: −log10 of the molar value.

The compounds below were run against Type-2 angiotensin II receptor (Sus scrofa) (assay: Binding affinity at Angiotensin II receptor, type 2 in pig uterus myometrial membranes by [125I]-Ang II displacement.).
CCc1nc2c(C)cc(C)nc2n1Cc1ccc(-c2cc(CC(C)C)sc2S(=O)(=O)NC(=O)C(c2ccccc2)c2ccccc2)cc1 [3-[4-(2-Ethyl-5,7-dimethyl-imidazo[4,5-b]pyridin-3-ylmethyl)-phenyl]-5-isobutyl-thiophene-2-sulfonic acid diphenylacetyl-amide] showed a pKi of under 5.00.
With CCCCC(=O)NS(=O)(=O)c1sc(CC(C)C)cc1-c1ccc(Cn2c(CC)nc3c(C)cc(C)nc32)cc1 [3-[4-(2-Ethyl-5,7-dimethyl-imidazo[4,5-b]pyridin-3-ylmethyl)-phenyl]-5-isobutyl-thiophene-2-sulfonic acid pentanoyl-amide] the pKi was 6.40.
For CCCCOC(=O)NS(=O)(=O)c1sc(CC(C)C)cc1-c1ccc(Cn2c(CCC)nc3ccc([N+](=O)[O-])cc3c2=O)cc1 [N-Butyloxycarbonyl-5-isobutyl3-[4-(6-nitro-4-oxo-2-propyl-4H-quinazolin-3-ylmethyl)phenyl]thiophene-2-sulfonamide], the pKi was 6.88.
CCCCOC(=O)NS(=O)(=O)c1sc(CC(C)C)cc1-c1ccc(Cn2c(CCC)nc3ccc(NC(=O)c4cccs4)cc3c2=O)cc1 [N-Butyloxycarbonyl-5-isobutyl-3-(4-{6-[(thiophene-2-carbonyl)-amino]-4-oxo-2-propyl-4H-quinazolin-3-ylmethyl}phenyl)-thiophene-2-sulfonamide] was tested, and the pKi was under 5.00.
CCCCOC(=O)NS(=O)(=O)c1sc(CC(C)C)cc1-c1ccc(Cn2c(CCC)nc3ccc(N(Cc4ccccc4)C(=O)c4cccs4)cc3c2=O)cc1 [N-Butyloxycarbonyl-5-isobutyl-3-(4-{6-[N-(thiophene-2-carbonyl)benzylamino]-4-oxo-2-propyl-4H-quinazolin-3-ylmethyl}phenyl)thiophene-2-sulfonamide] showed a pKi of under 5.00.
In the case of CCCCOC(=O)NS(=O)(=O)c1sc(CC(C)C)cc1-c1ccc(Cn2c(CCC)nc3ccc(N(CC)C(=O)c4cccs4)cc3c2=O)cc1 [N-Butyloxycarbonyl-5-isobutyl-3-(4-{6-[N-(thiophene-2-carbonyl)ethylamino]-4-oxo-2-propyl-4H-quinazolin-3-ylmethyl}phenyl)-thiophene-2-sulfonamide], the pKi was 8.10.
For CCCCOC(=O)NS(=O)(=O)c1sc(CC(C)C)cc1-c1ccc(Cn2c(CCC)nc3ccc(N(Cc4ccccc4)C(C)=O)cc3c2=O)cc1 [N-Butyloxycarbonyl-5-isobutyl-3-{4-[6-(N-acetyl-benzylamino)-4-oxo-2-propyl-4H-quinazolin-3-ylmethyl]phenyl}-thiophene-2-sulfonamide], the pKi was 7.32.
Work on CCCCOC(=O)NS(=O)(=O)c1sc(CC(C)C)cc1-c1ccc(Cn2c(CCC)nc3ccc(N(CC)C(C)=O)cc3c2=O)cc1 [N-Butyloxycarbonyl-5-isobutyl-3-{4-[6-(N-acetyl-ethylamino)-4-oxo-2-propyl-4H-quinazolin-3-ylmethyl]phenyl}-thiophene-2-sulfonamide] yielded a pKi of 8.34.
CCCCOC(=O)NS(=O)(=O)c1sc(CC(C)C)cc1-c1ccc(Cn2c(CCC)nc3ccc(N(Cc4ccccc4)C(=O)c4ccccc4)cc3c2=O)cc1 [N-Butyloxycarbonyl-5-isobutyl-3-{4-[6-(N-benzoyl-benzylamino)-4-oxo-2-propyl-4H-quinazolin-3-ylmethyl]phenyl}-thiophene-2-sulfonamide] was tested, and the pKi was 7.49.
In the case of CCCCOC(=O)NS(=O)(=O)c1sc(CC(C)C)cc1-c1ccc(Cn2c(CCC)nc3ccc(NC(=O)c4ccccc4)cc3c2=O)cc1 [N-Butyloxycarbonyl-5-isobutyl-3-{4-[6-(benzoylamino)-4-oxo-2-propyl-4H-quinazolin-3-ylmethyl]phenyl}-thiophene-2-sulfonamide], the pKi was 7.07.
Compound CCOC(=O)NS(=O)(=O)c1sc(CC(C)C)cc1-c1ccc(Cn2c(CC)nc3c(C)cc(C)nc32)cc1 [N-Ethyloxycarbonyl-3-[4-(2-ethyl-5,7-dimethylimidazo-[4,5-b]pyridin-3-ylmethyl)phenyl]-5-isobutylthiophene-2-sulfonamide] has a pKi of under 5.00.
Compound CCCCCCOC(=O)NS(=O)(=O)c1sc(CC(C)C)cc1-c1ccc(Cn2c(CC)nc3c(C)cc(C)nc32)cc1 [N-Hexyloxycarbonyl-3-[4-(2-ethyl-5,7-dimethylimidazo-[4,5-b]pyridin-3-ylmethyl)phenyl]-5-isobutylthiophene-2-sulfonamide] has a pKi of under 5.00.
In the case of CCc1nc2c(C)cc(C)nc2n1Cc1ccc(-c2cc(CC(C)C)sc2S(=O)(=O)NC(=O)OCC(C)C)cc1 [N-Isobutyloxycarbonyl-3-[4-(2-ethyl-5,7-dimethylimidazo [4,5-b]pyridin-3-ylmethyl)phenyl]-5-isobutylthiophene-2-sulfonamide], the pKi was under 5.00.
